Data reported in the supplement of paper PMC10331698.
± gives the standard deviation of the averaged measurements.

Legend:
Test in all cases: level (log10 ratio to DMSO vehicle control); higher = higher biomarker level / cell amount than vehicle control
[1] = compound: OCCCCC(F)(F)C(F)(F)C(F)(F)C(F)(F)F [4:4 Fluorotelomer alcohol]; conditions: in DMSO
Procedure: (§1)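 BioMAP Diversity Plus panel of 12 human primary cell co-culture systems (3C, 4H, LPS, SAg, BT, BF4T, BE3C, CASM3C, HDF3CGF, KF3CT, MyoF, Mphg). Compounds were added 1 h before stimulation and left for 24 h (MyoF 48 h; BT 72 h for soluble read-outs or 6 d for IgG). Biomarkers were read by ELISA, cytotoxicity by SRB, PBMC viability and proliferation by Alamar Blue. Each well value was divided by the mean of 8 DMSO control wells on the same plate and log10 transformed; duplicate blinded samples were tested at 4 concentrations.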

[2] = compound: C=CC(=O)OCCC(F)(F)C(F)(F)C(F)(F)C(F)(F)C(F)(F)C(F)(F)C(F)(F)C(F)(F)F [8:2 Fluorotelomer acrylate]; conditions: in DMSO
Procedure: as §1

[3] = compound: O=S(=O)(OCC(F)(F)F)C(F)(F)C(F)(F)C(F)(F)C(F)(F)F [2,2,2-Trifluoroethyl perfluorobutanesulfonate]; conditions: in DMSO
Procedure: as §1

[4] = compound: C=C(C)C(=O)OCC(F)(F)C(F)(F)C(F)(F)F [2,2,3,3,4,4,4-Heptafluorobutyl methacrylate]; conditions: in DMSO
Procedure: as §1

[5] = compound: OCCC(F)(F)C(F)(F)C(F)(F)C(F)(F)C(F)(F)C(F)(F)C(F)(F)C(F)(F)F [8:2 Fluorotelomer alcohol]; conditions: 6700 nM; in DMSO
Procedure: as §1

[6] = compound: O=C(Cl)C(F)(F)C(F)(F)C(F)(F)C(=O)Cl [Hexafluoroglutaryl chloride]; conditions: in DMSO
Procedure: as §1

[7] = compound: O=P(O)(O)CCC(F)(F)C(F)(F)C(F)(F)C(F)(F)C(F)(F)C(F)(F)F [2-(Perfluorohexyl)ethylphosphonic acid]; conditions: in DMSO
Procedure: as §1

Test System | level (log10) ([1]; 6700 nM) | level (log10) ([1]; 20000 nM) | level (log10) ([1]; 60000 nM) | level (log10) ([2]; 6700 nM) | level (log10) ([2]; 20000 nM) | level (log10) ([2]; 60000 nM) | level (log10) ([3]; 6700 nM) | level (log10) ([3]; 20000 nM) | level (log10) ([3]; 60000 nM) | level (log10) ([4]; 6700 nM) | level (log10) ([4]; 20000 nM) | level (log10) ([4]; 60000 nM) | level (log10) [5] | level (log10) ([6]; 6700 nM) | level (log10) ([6]; 20000 nM) | level (log10) ([6]; 60000 nM) | level (log10) ([7]; 6700 nM) | level (log10) ([7]; 20000 nM) | level (log10) ([7]; 60000 nM)
LPS:CD69 | -0.0335 ± 0.016 | -0.0135 ± 0.015 | -0.0135 ± 0.015 | 0.012 ± 0.054 | -0.044 ± 0.05 | -0.052 ± 0.061 | 0.0015 ± 0.15 | 0.001 ± 0.088 | -0.073 ± 0.16 | -0.019 ± 0.013 | -0.024 ± 0.028 | -0.024 ± 0.011 | -0.063 ± 0.11 | 0.0045 ± 0.021 | -0.0195 ± 0.07 | -0.005 ± 0.051 | -0.026 ± 0.075 | 0.001 ± 0.051 | 0.0815 ± 0.029
LPS:M-CSF | 0.0085 ± 0.0078 | -0.001 ± 0.017 | 0.018 ± 0.0085 | 0.001 ± 0.0085 | -0.006 ± 0.023 | -0.03 ± 0.0014 | -0.01 ± 0.016 | -0.046 ± 0.02 | -0.09 ± 0.0085 | 0.0125 ± 0.042 | 0.007 ± 0.035 | 0.0165 ± 0.023 | -0.06 ± 0.13 | -0.014 ± 0.05 | 0.001 ± 0.0085 | -0.0105 ± 0.005 | -0.0175 ± 0.074 | 0.0055 ± 0.043 | 0.0255 ± 0.019
3C:CD87/uPAR | -0.018 ± 0.057 | -0.0155 ± 0.005 | 0.012 ± 0.0014 | 0.007 ± 0.027 | -0.0065 ± 0.025 | -0.0025 ± 0.036 | 0.0115 ± 0.023 | -0.014 ± 0.035 | -0.139 ± 0.099 | -0.01 ± 0.025 | -0.0125 ± 0.036 | 0.012 ± 0.0085 | 0.008 ± 0.018 | -0.009 ± 0.0071 | 0.0225 ± 0.022 | 0.003 ± 0.041 | 0.0365 ± 0.03 | 0.0125 ± 0.00071 | -0.0385 ± 0.0092
4H:SRB | -0.003 ± 0.013 | 0 ± 0.018 | -0.001 ± 0.023 | -0.0045 ± 0.019 | -0.0035 ± 0.005 | 0.01 | -0.0025 ± 0.00071 | -0.0085 ± 0.011 | -0.0015 ± 0.023 | -0.0025 ± 0.005 | -0.005 ± 0.0042 | -0.001 ± 0.0014 | -0.014 ± 0.0042 | 0 ± 0.0014 | 0.0055 ± 0.015 | 0 ± 0.014 | -0.005 ± 0.024 | -0.0065 ± 0.021 | -0.0005 ± 0.032
BF4T:MMP-9 | 0.0045 ± 0.013 | -0.0015 ± 0.013 | 0.0275 ± 0.06 | -0.0255 ± 0.0064 | -0.0215 ± 0.012 | -0.021 ± 0.042 | -0.017 ± 0.0028 | -0.0145 ± 0.029 | -0.0225 ± 0.0064 | -0.015 ± 0.025 | -0.0265 ± 0.0078 | 0.0195 ± 0.049 | -0.0325 ± 0.0078 | -0.0075 ± 0.025 | -0.0125 ± 0.025 | 0.005 ± 0.0071 | -0.0155 ± 0.00071 | -0.0015 ± 0.0078 | 0.018 ± 0.035
4H:VEGFR2 | -0.0535 ± 0.036 | -0.0665 ± 0.005 | -0.0205 ± 0.047 | 0.019 ± 0.024 | 0.0175 ± 0.026 | 0.016 ± 0.04 | -0.0285 ± 0.03 | 0.0005 ± 0.019 | 0.025 ± 0.0014 | -0.0065 ± 0.03 | 0.01 | 0.0085 ± 0.0021 | 0.0185 ± 0.0064 | -0.0325 ± 0.029 | 0.018 ± 0.031 | 0.047 ± 0.035 | 0.0465 ± 0.015 | 0.0335 ± 0.0035 | -0.002 ± 0.027
BT:sIL-6 | 0.036 ± 0.033 | -0.0255 ± 0.005 | -0.069 ± 0.09 | 0.0525 ± 0.019 | 0.029 ± 0.0028 | 0.0215 ± 0.039 | 0.089 ± 0.0085 | 0.158 ± 0.02 | 0.231 ± 0.033 | 0.035 ± 0.0085 | -0.0015 ± 0.028 | -0.015 ± 0.041 | 0.0665 ± 0.013 | -0.0085 ± 0.042 | 0.008 ± 0.055 | -0.033 ± 0.023 | 0.0645 ± 0.013 | -0.007 ± 0.0042 | 0.0015 ± 0.025
SAg:CD38 | -0.001 ± 0.028 | -0.0075 ± 0.018 | -0.0165 ± 0.023 | -0.001 ± 0.0085 | -0.003 ± 0.0071 | -0.004 ± 0.013 | -0.0185 ± 0.0092 | -0.012 ± 0.0071 | -0.0475 ± 0.032 | -0.0015 ± 0.03 | 0.007 ± 0.048 | 0.013 ± 0.068 | -0.004 | -0.021 ± 0.025 | -0.031 ± 0.034 | -0.031 ± 0.055 | 0.018 | 0.0025 ± 0.016 | -0.0055 ± 0.011
